Results published in patent publication US11046962B2, “Lux expression in cells and methods of use” (490 BioTech, Inc., priority 2019, dated 2021).

Tests used:
[1] = test system: iPSC-derived cardiomyocytes (CMs); test: Doxorubicin exposure of cardiomyocytes differentiated from tet-luxCDABEF/tTA iPSCs, autobioluminescence imaging; type: cell-based; settings: Homo sapiens, Cardiomyocyte, 18 hours exposure prior to imaging, read-out: estimated EC50
Protocol: FIG. 16. Human induced pluripotent stem cells (iPSCs) bearing genomically integrated polycistronic lux operon (luxCDABEF) under control of the tetracycline responsive promoter (tet-luxCDABEF) and a separately integrated CBA-driven transactivator (tTA) were differentiated into cardiomyocytes (CMs). After maturation for approximately 1.5 weeks, the CMs were subjected to doxorubicin exposure. CMs were exposed to doxorubicin at the indicated range of concentrations for 18 hours prior to imaging.

[2] = test system: CM-luxAB/CDEF cardiomyocytes; test: Continuous cardiotoxicity monitoring with CM-luxAB/CDEF cardiomyocytes over 30 hours
[3] = test system: iPSC-luxAB/CDEF cells; test: Compound toxicity tracking in iPSC-luxAB/CDEF line by autonomous luminescent output and MTT; type: cell-based, Human; settings: range of concentrations, 24 hours
Protocol: First, iPSC-luxAB/CDEF cells were seeded in a volume of medium in two separate multi-well plates. Identical platings of untransfected cells were made along with platings of medium to serve as positive and negative controls. For the first plate, the cells were subjected to increasing concentrations of the cytotoxic compound doxorubin. For the second plate, the cells were subjected to increasing concentrations of the cytotoxic compound rotenone. The cells were then incubated under standard growth conditions for twenty four (24) hours. After this time period, the plates was imaged for luminescent output. Bioluminescent readings were obtained using a Synergyll plate reader (BioTek).
Following this reading, the plates were subjected to viability analysis using the MTT assay according to the manufacturer's instructions. MTT assay values were obtained as absorbance values at 570 nm using a Synergyll plate reader (BioTek) and reported as percentage of absorbance relative to untreated control cells. For all measurements, the background absorbance values derived from the medium only controls were subtracted to provide background corrected averages. Absorbance values from each treatment level were averaged, and the average values for each of the plates were used to determine standard errors of the mean for each assay.

[4] = test system: CM-luxAB/CDEF cardiomyocytes; test: Cardiotoxicity reporting by CM-luxAB/CDEF line, autobioluminescent output after 24 hours; type: cell-based; settings: Homo sapiens, Cardiomyocyte, 24 hours of treatment
Protocol: The autobioluminescent CM-luxAB/CDEF line was treated with a range of doxorubicin (uM) concentrations, and autobioluminescent output was measured after 24 hours of treatment.
The CM-luxAB/CDEF line was treated with a range of doxorubicin concentrations, and the autobioluminescent output was measured after twenty-four (24) hours of treatment. The percent change in average radiance (p/s/cm^2/sr) relative to control was plotted against the corresponding doxorubicin (uM) treatment.

## COc1cccc2c1C(=O)c1c(O)c3c(c(O)c1C2=O)C[C@@](O)(C(=O)CO)C[C@@H]3O[C@H]1C[C@H](N)[C@H](O)[C@H](C)O1 [doxorubicin]
[1]
  EC50: 410 to 740 nM
[2]; kinetic IC50 values over time course, measured every 10 minutes
  time of exposure at which the IC50 stabilizes: ~30 h
[2]; real time monitoring, 25 hours after addition
  autobioluminescent output with increasing concentrations: decreasing autobioluminescent output
[3]
  change of autonomous luminescent signal output indicative of cellular viability: dose dependent changes
[4]
  IC50: 290 nM
